{"source": "patent US20080009448A1", "about": "“Peptide Derivative” (priority 2006, published 2008)", "origin": "cited, not measured here", "details": "non-patent references 2-7, cited from earlier work", "note": "Non-standard residues stand in square brackets, D forms with d. No end group written: not given here. βAla = NCCC(=O)O", "data": [{"substance": "Y[dR]F[βAla] [TAPA]", "values": [{"measurement": "anti-nociceptive activity compared with morphine on oral administration", "value": "almost equal"}, {"measurement": "anti-nociceptive activity compared with morphine on subcutaneous administration", "value": "nine times stronger"}]}, {"substance": "Nα-amidine-[Tyr]-[D-Arg]-[Phe]-[N-Methyl-β-Ala]-OH [ADAMB]", "values": [{"measurement": "anti-nociceptive activity compared with morphine on oral administration", "value": "about 3.8 times"}, {"measurement": "anti-nociceptive activity compared with morphine on subcutaneous administration", "value": "about 23 times"}]}]}
